These results are taken from patent US20050009840A1 (SUGEN, INC., priority 2003, published 2005).

A word on the IC50: it is the midpoint of a concentration-inhibition curve.

For the assay, the target named is T1, Met kinase domain (GST fusion protein) (Homo sapiens, UniProt P08581).
T1 construct: Purified GST fusion protein containing the Met kinase domain
T1 sequence (P08581 1078-1345 limits assumed): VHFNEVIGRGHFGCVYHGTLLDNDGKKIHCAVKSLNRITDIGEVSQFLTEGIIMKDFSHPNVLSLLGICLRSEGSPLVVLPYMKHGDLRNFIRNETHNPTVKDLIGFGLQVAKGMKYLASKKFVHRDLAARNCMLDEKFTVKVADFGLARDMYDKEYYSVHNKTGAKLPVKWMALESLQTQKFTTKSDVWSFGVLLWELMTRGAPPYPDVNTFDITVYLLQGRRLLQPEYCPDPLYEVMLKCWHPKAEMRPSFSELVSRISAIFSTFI
Description: Met transphosphorylation assay (ELISA, poly(glu-tyr) substrate).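 Also: Cell-free ELISA with plate-bound poly(Glu:Tyr 4:1) phosphorylated by GST-fused Met kinase domain plus ATP and Mn2+, phosphotyrosine detected by anti-phosphotyrosine antibody with HRP and ABTS read-out.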 Format: biochemical. The settings on record: Table 2; read-out: Met IC50. Background: In an ELISA, binding on a coated surface is turned into a signal by an enzyme label.
Turning to `CC(Oc1cc(-c2cccc(C(=O)N3CCC(N4CCCC4)CC3)c2)cnc1N)c1c(Cl)ccc(F)c1Cl` (centres unmarked) [Example I-322, (3-{6-Amino-5-[1-(2,6-dichloro-3-fluoro-phenyl)-ethoxy]-pyridin-3-yl}-phenyl)-(4-pyrrolidin-1-yl-piperidin-1-yl)-methanone], the IC50 worked out at 0.071 µM. In the case of `CCN(CC)CCS(=O)(=O)Nc1ccc(-c2cnc(N)c(OC(C)c3c(Cl)ccc(F)c3Cl)c2)cc1` (centres unmarked) [Example I-323, 2-Diethylamino-ethanesulfonic acid (4-{6-amino-5-[1-(2,6-dichloro-3-fluoro-phenyl)-ethoxy]-pyridin-3-yl}-phenyl)-amide], the IC50 stood at 0.08 µM. In the case of `CC(Oc1cc(-c2ccc(NS(=O)(=O)CCN3CCCCC3)cc2)cnc1N)c1c(Cl)ccc(F)c1Cl` (centres unmarked) [Example I-325], the IC50 is 0.089 µM. Consider `CC(Oc1cc(-c2ccc(NS(=O)(=O)CCNCC3CC3)cc2)cnc1N)c1c(Cl)ccc(F)c1Cl` (centres unmarked) [Example I-326, 2-(Cyclopropylmethyl-amino)-ethanesulfonic acid (4-{6-amino-5-[1-(2,6-dichloro-3-fluoro-phenyl)-ethoxy]-pyridin-3-yl}-phenyl)-amide], for which the IC50 was found to be 0.075 µM. Take `CC(Oc1cc(-c2ccc(NS(=O)(=O)CCN3CC[C@@H](O)C3)cc2)cnc1N)c1c(F)ccc(F)c1Cl` (some centres unmarked) [Example I-327]: the IC50 is 0.093 µM. For the compound `CC(Oc1cc(-c2ccc(NS(=O)(=O)CCNC3CC3)cc2)cnc1N)c1c(F)ccc(F)c1Cl` (centres unmarked) [Example I-328, 2-Cyclopropylamino-ethanesulfonic acid (4-{6-amino-5-[1-(2-chloro-3,6-difluoro-phenyl)-ethoxy]-pyridin-3-yl}-phenyl)-amide], the IC50 is 0.16 µM. The result for `CCN(CC)CCS(=O)(=O)Nc1ccc(-c2cnc(N)c(OC(C)c3c(F)ccc(F)c3Cl)c2)cc1` (centres unmarked) [Example I-329, 2-Diethylamino-ethanesulfonic acid (4-{6-amino-5-[1-(2-chloro-3,6-difluoro-phenyl)-ethoxy]-pyridin-3-yl}-phenyl)-amide] reads 0.095 µM; that for `CC(Oc1cc(-c2ccc(C(=O)NCCN3CCOCC3)cc2)cnc1N)c1c(F)ccc(F)c1Cl` (centres unmarked) [Example I-331, 4-{6-Amino-5-[1-(2-chloro-3,6-difluoro-phenyl)-ethoxy]-pyridin-3-yl}-N-(2-morpholin-4-yl-ethyl)-benzamide], 0.13 µM; that for `CC(Oc1cc(-c2ccc(C(=O)NC3CCN(C)CC3)cc2)cnc1N)c1c(F)ccc(F)c1Cl` (centres unmarked) [Example I-332, 4-{6-Amino-5-[1-(2-chloro-3,6-difluoro-phenyl)-ethoxy]-pyridin-3-yl}-N-(1-methyl-piperidin-4-yl)-benzamide], 0.079 µM. As to `CC(Oc1cc(-c2ccc(C(=O)N3CC[C@@H](N)C3)cc2)cnc1N)c1c(F)ccc(F)c1Cl` (stereo partly drawn) [Example I-334, (4-{6-Amino-5-[1-(2-chloro-3,6-difluoro-phenyl)-ethoxy]-pyridin-3-yl}-phenyl)-((R)-3-amino-pyrrolidin-1-yl)-methanone], the IC50 is 0.089 µM.

With `CC(Oc1cc(-c2ccc(C(=O)N3C[C@@H](C)N[C@@H](C)C3)cc2)cnc1N)c1c(F)ccc(F)c1Cl` (stereo partly drawn) [Example I-335, (4-{6 Amino-5-[1-(2-chloro-3,6-difluoro-phenyl)-ethoxy]-pyridin-3-yl}-phenyl)-((3R,5S)-3,5-dimethyl-piperazin-1-yl)-methanone], the IC50 came to 0.09 µM.

Consider `CC(Oc1cc(-c2ccc(C(=O)NCCCN3CCCC3)cc2)cnc1N)c1c(F)ccc(F)c1Cl` (centres unmarked) [Example I-336, 4-{6-Amino-5-[1-(2-chloro-3,6-difluoro-phenyl)-ethoxy]-pyridin-3-yl}-N-(3-pyrrolidin-1-yl-propyl)-benzamide], for which the IC50 was 0.09 µM. For `CC(Oc1cc(-c2ccc(C(=O)N3CCN(C)CC3)cc2)cnc1N)c1c(F)ccc(F)c1Cl` (centres unmarked) [Example I-338, (4-{6-Amino-5-[1-(2-chloro-3,6-difluoro-phenyl)-ethoxy]-pyridin-3-yl}-phenyl)-(4-methyl-piperazin-1-yl)-methanone] the value was 0.077 µM; for `CC(Oc1cc(-c2ccc(C(=O)NCCN3CCCC3)cc2)cnc1N)c1c(F)ccc(F)c1Cl` (centres unmarked) [Example I-340, 4-{6-Amino-5-[1-(2-chloro-3,6-difluoro-phenyl)-ethoxy]-pyridin-3-yl}-N-(2-pyrrolidin-1-yl-ethyl)-benzamide], 0.086 µM; for `CC(Oc1cc(-c2ccc(C(=O)N3CC[C@H](N)C3)cc2)cnc1N)c1c(F)ccc(F)c1Cl` (stereo partly drawn) [Example I-341, (4-{6-Amino-5-[1-(2-chloro-3,6-difluoro-phenyl)-ethoxy]-pyridin-3-yl}-phenyl)-((S)-3-amino-pyrrolidin-1-yl)-methanone], 0.075 µM. As for `CC(Oc1cc(-c2cccc(C(=O)N3C[C@@H](C)N[C@@H](C)C3)c2)cnc1N)c1c(F)ccc(F)c1Cl` (some centres unmarked) [Example I-343], the IC50 came to 0.16 µM. For `CC(Oc1cc(-c2cccc(C(=O)N3CC[C@@H](N)C3)c2)cnc1N)c1c(F)ccc(F)c1Cl` (stereo partly drawn) [Example I-344, (3-{6-Amino-5-[1-(2-chloro-3,6-difluoro-phenyl)-ethoxy]-pyridin-3-yl}-phenyl)-((R)-3-amino-pyrrolidin-1-yl)-methanone], the IC50 was 0.12 µM.

For `CC(Oc1cc(-c2cccc(C(=O)NC3CCN(C)CC3)c2)cnc1N)c1c(F)ccc(F)c1Cl` (centres unmarked) [Example I-345, 3-{6-Amino-5-[1-(2-chloro-3,6-difluoro-phenyl)-ethoxy]-pyridin-3-yl}-N-(1-methyl-piperidin-4-yl)-benzamide], the IC50 was found to be 0.2 µM. Turning to `CC(Oc1cc(-c2cccc(C(=O)N3CCN(C)CC3)c2)cnc1N)c1c(F)ccc(F)c1Cl` (centres unmarked) [Example I-346, (3-{6-Amino-5-[1-(2-chloro-3,6-difluoro-phenyl)-ethoxy]-pyridin-3-yl}-phenyl)-(4-methyl-piperazin-1-yl)-pnl methanone], the IC50 was found to be 0.19 µM. Take `CC(Oc1cc(-c2cccc(C(=O)NCCCN3CCCC3)c2)cnc1N)c1c(F)ccc(F)c1Cl` (centres unmarked) [Example I-347, 3-{6-Amino-5-[1-(2-chloro-3,6-difluoro-phenyl)-ethoxy]-pyridin-3-yl}-N-(3-pyrrolidin-1-yl-propyl)-benzamide]: the IC50 came to 0.21 µM. Regarding `CC(Oc1cc(-c2cccc(C(=O)NCCN3CCCC3)c2)cnc1N)c1c(F)ccc(F)c1Cl` (centres unmarked) [Example I-348, 3-{6-Amino-5-[1-(2-chloro-3,6-difluoro-phenyl)-ethoxy]-pyridin-3-yl}-N-(2-pyrrolidin-1-yl-ethyl)-benzamide], the IC50 was found to be 0.2 µM.

In the case of `CC(Oc1cc(-c2cccc(C(=O)N3CC[C@H](N)C3)c2)cnc1N)c1c(F)ccc(F)c1Cl` (stereo partly drawn) [Example I-349, (3-{6-Amino-5-[1-(2-chloro-3,6-difluoro-phenyl)-ethoxy]-pyridin-3-yl}-phenyl)-((S)-3-amino-pyrrolidin-1-yl)-methanone], the IC50 was found to be 0.13 µM.

As to `CC(Oc1cc(-c2cccc(C(=O)NCCN3CCOCC3)c2)cnc1N)c1c(F)ccc(F)c1Cl` (centres unmarked) [Example I-350, 3-{6-Amino-5-[1-(2-chloro-3,6-difluoro-phenyl)-ethoxy]-pyridin-3-yl}-N-(2-morpholin-4-yl-ethyl)-benzamide], the IC50 is 0.39 µM. On to `CC(Oc1cc(-c2cccc(C(=O)N3CCC[C@@H]3CN3CCCC3)c2)cnc1N)c1c(F)ccc(F)c1Cl` (some centres unmarked) [Example I-351], for which the IC50 worked out at 0.23 µM. Regarding `CC(Oc1cc(-c2cccc(C(=O)N3CCC[C@H]3CN3CCCC3)c2)cnc1N)c1c(F)ccc(F)c1Cl` (some centres unmarked) [Example I-352], the IC50 came out at 0.15 µM. For the compound `CC(Oc1cc(-c2ccc(OCCN3CCOCC3)cc2)cnc1N)c1c(F)ccc(F)c1Cl` (centres unmarked) [Example I-353, 3-[1-(2-Chloro-3,6-difluoro-phenyl)-ethoxy]-5-[4-(2-morpholin-4-yl-ethoxy)-phenyl]-pyridin-2-ylamine], the half-inhibitory concentration (IC50) came out at 0.23 µM. As to `CC(Oc1cc(-c2cccc(OCCN3CCOCC3)c2)cnc1N)c1c(F)ccc(F)c1Cl` (centres unmarked) [Example I-354, 3-[1-(2-Chloro-3,6-difluoro-phenyl)-ethoxy]-5-[3-(2-morpholin-4-yl-ethoxy)-phenyl]-pyridin-2-ylamine], the IC50 was 0.22 µM. For `CC(Oc1cc(-c2ccc(OCCN3CCCC3)cc2)cnc1N)c1c(Cl)ccc(F)c1Cl` (centres unmarked) [Example I-355, 3-[1-(2,6-Dichloro-3-fluoro-phenyl)-ethoxy]-5-[4-(2-pyrrolidin-1-yl-ethoxy)-phenyl]-pyridin-2-ylamine], the half-inhibitory concentration (IC50) was found to be 0.068 µM. For `CC(Oc1cc(-c2ccc(OCCC3CCCN3C)cc2)cnc1N)c1c(Cl)ccc(F)c1Cl` (centres unmarked) [Example I-356], the IC50 was found to be 0.079 µM. The result for `CC(Oc1cc(-c2ccc(OCCN3CCOCC3)cc2)cnc1N)c1c(Cl)ccc(F)c1Cl` (centres unmarked) [Example I-357, 3-[1-(2,6-Dichloro-3-fluoro-phenyl)-ethoxy]-5-[4-(2-morpholin-4-yl-ethoxy)-phenyl]-pyridin-2-ylamine] reads 0.13 µM.

`CC(Oc1cc(-c2cccc(OCCN3CCOCC3)c2)cnc1N)c1c(Cl)ccc(F)c1Cl` (centres unmarked) [Example I-358, 3-[1-(2,6-Dichloro-3-fluoro-phenyl)-ethoxy]-5-[3-(2-morpholin-4-yl-ethoxy)-phenyl]-pyridin-2-ylamine]: the IC50 is 0.22 µM. As for `CC(Oc1cc(-c2ccc(OCC(O)CN3CCOCC3)cc2)cnc1N)c1c(Cl)ccc(F)c1Cl` (centres unmarked) [Example I-359, 1-(4-{6-Amino-5-[1-(2,6-dichloro-3-fluoro-phenyl)-ethoxy]-pyridin-3-yl}-phenoxy)-3-morpholin-4-yl-propan-2-ol], the IC50 was 0.045 µM.

`CCN(CC)CCOc1ccc(-c2cnc(N)c(OC(C)c3c(Cl)ccc(F)c3Cl)c2)cc1` (centres unmarked) [Example I-360, 3-[1-(2,6-Dichloro-3-fluoro-phenyl)-ethoxy]-5-[4-(2-diethylamino-ethoxy)-phenyl]-pyridin-2-ylamine]: the IC50 worked out at 0.033 µM. The result for `CC(Oc1cc(-c2ccc(OCC3CCCN(C)C3)cc2)cnc1N)c1c(Cl)ccc(F)c1Cl` (centres unmarked) [Example I-361, 3-[1-(2,6-Dichloro-3-fluoro-phenyl)-ethoxy]-5-[4-(1-methyl-piperidin-3-ylmethoxy)-phenyl]-pyridin-2-ylamine] reads 0.043 µM; that for `CC(Oc1cc(-c2ccc(OCCN(C(C)C)C(C)C)cc2)cnc1N)c1c(Cl)ccc(F)c1Cl` (centres unmarked) [Example I-362], 0.052 µM.
